Measurements from US20170044230A1 (USTAV ORGANICKE CHEMIE A BIOCHEMIE AV CR, V.V.I., priority 2014, published 2017).
“Also recorded” adds a separate entry of the source. Non-standard residues stand in square brackets, D forms with d. Residues, ends and D or L forms follow the SMILES beside them. *: point of attachment. 1Nal = N[C@@H](Cc1cccc2ccccc12)C(=O)O; Myristoyl = CCCCCCCCCCCCCC(=O)*; Cha = N[C@@H](CC1CCCCC1)C(=O)O; Dap = NC[C@H](N)C(=O)O; Sar = CNCC(=O)O

Columns and labels:
[1] = tested on: rat model of subtotal nephrectomy; assay: Rat model of renal cachexia (subtotal nephrectomy, SNx); type: in vivo
Description: Male F344 rats (Harlan, Italy) were housed at a temperature of 22±2° C. under a daily cycle of 12/12 h light/dark (light from 6:00) with free access to water and a standard chow diet St-1 (Mlýn Kocanda, Praha, Czech Republic).
To induce renal dysfunction, 5/6 nephrectomy was performed to anesthetized 8-week-old rats (SNx group, n=14); the control group was sham-operated (Sham group, n=6). Starting from the following day, the rats were SC injected with saline or ghrelin analog no. 2 (5 mg/kg of body weight, dissolved in saline) for 15 days. Food intake and body weight of the rats was monitored every day. At the end of the experiment, blood was collected for determination of pro-inflammatory cytokines using the Milliplex MAP Rat Cytokine/Chemokine Magnetic Bead Panel (Merck-Millipore, St. Charles, Mo., USA).

human GHS-R1a receptor = molecular target: T1, human GHS-R1a receptor (Homo sapiens, UniProt Q92847); assay: Competitive binding studies (displacement of 125I-ghrelin); settings: relative to ghrelin = 100
T1 construct: purchased Multispan, Hayward, Calif., USA; host or cells: HEK293T cells, isolated plasma membranes
Description: Isolated plasma membranes from the HEK293T cells with transfected human GHS-R1a receptor (Multispan, Hayward, Calif., USA) were used. […] Experiments were carried out in duplicates at least three times. Competitive binding curves were plotted using GraphPad Prism Software (San Diego, Calif., USA) while comparing the best fit for single binding sites models.

fed C57BL/6 male mice = assay: Effect of SC administered ghrelin analogs on food intake; type: in vivo; settings: for maximal effect at 5 mg/kg on food intake: SC 5 mg/kg, evaluated 480 min after administration; for ED50 (250 min after injection), effect on food intake: SC
Description: All of the experiments followed the ethical guidelines for animal experiments and Czech Republic law 246/1992 and were approved by the committee for experiments with laboratory animals of the Academy of Sciences of the Czech Republic. Male C57BL/6 mice (Charles River, Germany) were housed at a temperature 22±2° C. under a daily cycle of 12/12 h light/dark (light from 6:00) with free access to water and a standard chow diet St-1 which contained […] of calories from protein, fat and carbohydrate, respectively, and its energy content was 3.4 kcal/g (Mlýn Kocanda, Praha, Czech Republic). Mice were placed into separate cages for one week before experiment, they had free access to water and food pellets. Closely before the experiment, the food pellets were removed from the cages. […] 15 min after the injection, mice were given preweighed food pellets. Food intake was monitored for 8-10 hours at 30-min intervals. Mice had free access to water during the experiment. Experiments were performed at least twice for each tested compound, each experimental group had at least 5 mice.
Data from food intake experiments were analyzed by one-way ANOVA followed by Dunnett's post-hoc test using GraphPad Prism Software (San Diego, Calif., USA), P<0.05 was considered statistically significant. ED50 values were calculated using GraphPad Prism Software as the dose of the tested compound required to elicit half-maximal effect at 250 min after administration of the corresponding compound.
Food intake was monitored for […] after administration of the compounds. ED50 values were determined 250 min after administration. Maximal effect on food intake was evaluated […] after administration of the compounds at a dose of 5 mg/kg of body weight. NT—not tested.

[2] = Pharmacokinetics in vivo after SC administration to mice; settings: SC 5 mg/kg
Description: Mice were housed at a temperature 22±2° C. under a daily cycle of 12/12 h light/dark (light from 6:00) with free access to water and a standard chow diet St-1 (Mlýn Kocanda, Praha, Czech Republic).
4, 6, 14 and 18 at a dose of 5 mg/kg of body weight (0.2 ml/mouse, n=4). Blood was collected from tails before injection and 0.5, 1, 2, 4, 8, 16 and 24 h after injection. Plasma was separated and stored at −20° C.

[3] = tested on: 4-5-week old male C57BL/6 mice; assay: Growth hormone (GH) release after SC administration to young mice; type: in vivo; settings: 10 min after SC 5 mg/kg
Description: 4 and 14 at a dose of 5 mg/kg of body weight (0.2 ml/mouse). 10 min after the injection, blood was collected, plasma was prepared and stored at −20° C. until use. GH levels in the plasma samples were determined by Rat/Mouse Growth Hormone ELISA kit (Merck-Millipore, St. Charles, Mo., USA). Ghrelin analogs no.

[4] = tested on: rat model of aortic stenosis-induced cachexia; assay: Rat model of aortic stenosis-induced cachexia; type: in vivo; settings: 28-day continuous IP infusion
Description: Cachexia induced through the aortic stenosis (AS) was made in male Wistar rats, aged 8-9 months (Harlan, Italy). Rats were housed at a temperature of 22±2° C. under a daily cycle of 12/12 h light/dark (light from 6:00) with free access to water and a standard chow diet (Altromin, Germany).
The animals were anesthetized with isoflurane and the aortic stenosis was induced via abdominal incision. […] A steel wire (diameter 0.4 mm) was placed alongside the isolated aorta, both were gently tightened with a stitch (3-0 silk tread), and the wire was removed accordingly. […] Finally, the abdomen was sutured and the animals were kept in standard conditions with free access to regular rat chow and water ad libitum. The Sham group consisted of sham-operated rats prepared by a similar surgical treatment without aortic stenosis.
Mortality was about 5% within 72 h after stenosis. All animal experiments were approved by the Institutional Animal Experimental Ethics Committee of the Institute of Physiology AS CR. […] 2 dissolved in vehicle (2.5 mg/kg of body weight per day) for 28 days (n=5). Food intake and body weight of the rats was monitored every day.

[5] = 15-day SC 5 mg/kg, vs SNx/saline, 5 mg/kg

T1 sequence (Q92847 whole entry): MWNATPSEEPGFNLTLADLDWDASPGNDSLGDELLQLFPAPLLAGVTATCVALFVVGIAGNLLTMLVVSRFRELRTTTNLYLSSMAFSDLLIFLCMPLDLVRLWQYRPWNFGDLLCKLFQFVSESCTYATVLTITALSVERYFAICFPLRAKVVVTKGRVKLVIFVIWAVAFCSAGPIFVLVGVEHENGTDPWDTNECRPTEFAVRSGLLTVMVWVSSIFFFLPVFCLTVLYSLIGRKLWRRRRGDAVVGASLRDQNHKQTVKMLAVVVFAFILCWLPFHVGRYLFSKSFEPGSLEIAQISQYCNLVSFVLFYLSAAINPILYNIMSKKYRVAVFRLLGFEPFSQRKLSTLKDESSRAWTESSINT

Molecule | % of ghrelin binding (human GHS-R1a receptor) [%] | maximal effect at 5 mg/kg on food intake (fed C57BL/6 male mice) | ED50 (250 min after injection), effect on food intake (fed C57BL/6 male mice; fed mice) [mg/kg] | stability in vivo compared with ghrelin or Dpr^3ghrelin [2] | further results
(Sar)S(Dpr-N-myr)FLSPEHQKAQQRKESKKPPAKLQPR (XSXFLSPEHQKAQQRKESKKPPAKLQPR; Sar N-terminus; myristoylated Dpr; ghrelin analog) [Analog 2] | – | – | – | – | IL-1α in blood plasma ([1]; SNx rats, 15-day SC 5 mg/kg): 392.3 ± 49.5 pg/mL; IL-2 in blood plasma ([1]; SNx rats, 15-day SC 5 mg/kg): 28.1 ± 9.3 pg/mL; IL-6 in blood plasma ([1]; SNx rats, 15-day SC 5 mg/kg): 337.3 ± 62.8 pg/mL; IL-10 in blood plasma ([1]; SNx rats, 15-day SC 5 mg/kg): 150.7 ± 6.2 pg/mL; TNF-α in blood plasma ([1]; SNx rats, 15-day SC 5 mg/kg): 32.6 ± 3.8 pg/mL
CCCCCCCCCCCCCC(=O)NC[C@H](NC(=O)[C@H](CO)NC(=O)CNC)C(=O)N[C@@H](CC1CCCCC1)C(=O)N[C@@H](CC(C)C)C(=O)N[C@@H](CO)C(=O)N1CCC[C@H]1C(=O)N[C@@H](CCC(=O)O)C(=O)N[C@@H](Cc1c[nH]cn1)C(=O)N[C@@H](CCC(N)=O)C(=O)N[C@@H](CCCCN)C(=O)N[C@@H](C)C(=O)N[C@@H](CCC(N)=O)C(=O)N[C@@H](CCC(N)=O)C(=O)N[C@@H](CCCNC(=N)N)C(=O)N[C@@H](CCCCN)C(=O)N[C@@H](CCC(=O)O)C(=O)N[C@@H](CO)C(=O)N[C@@H](CCCCN)C(=O)N[C@@H](CCCCN)C(=O)N1CCC[C@H]1C(=O)N1CCC[C@H]1C(=O)N[C@@H](C)C(=O)N[C@@H](CCCCN)C(=O)N[C@@H](CC(C)C)C(=O)N[C@@H](CCC(N)=O)C(=O)N1CCC[C@H]1C(=O)N[C@@H](CCCNC(=N)N)C(=O)O [Analog 6] (H-[Sar]S[Dap](Myristoyl)[Cha]LSPEHQKAQQRKESKKPPAKLQPR-OH; N-terminus and C-terminus assumed) | 18 | 276.2 % of Dpr^3ghr | 3.05 | significantly more stable than ghrelin or Dpr^3ghrelin | half-life ([2]; male, C57BL/6, mouse, plasma): 7 h
CCCCCCCCCCCCCC(=O)NC[C@H](NC(=O)[C@H](CO)NC(=O)CNC)C(=O)N[C@@H](Cc1ccccc1)C(=O)N[C@@H](CC(C)C)C(=O)N[C@@H](CO)C(=O)N1CCC[C@H]1C(=O)N[C@@H](CCC(=O)O)C(=O)N[C@@H](Cc1c[nH]cn1)C(=O)N[C@@H](CCC(N)=O)C(=O)N[C@@H](CCCCN)C(=O)N[C@@H](C)C(=O)N[C@@H](CCC(N)=O)C(=O)N[C@@H](CCC(N)=O)C(=O)N[C@@H](CCCNC(=N)N)C(=O)N[C@@H](CCCCN)C(=O)N[C@@H](CCC(=O)O)C(=O)N[C@@H](CO)C(=O)O [Analog 18] (H-[Sar]S[Dap](Myristoyl)FLSPEHQKAQQRKES-OH) | – | – | – | significantly more stable than ghrelin or Dpr^3ghrelin | –
CCCCCCCCCCCCCC(=O)NC[C@H](NC(=O)[C@H](CO)NC(=O)CNC)C(=O)N[C@@H](Cc1cccc2ccccc12)C(=O)N[C@@H](CC(C)C)C(=O)N[C@@H](CO)C(=O)N1CCC[C@H]1C(=O)N[C@@H](CCC(=O)O)C(=O)N[C@@H](Cc1c[nH]cn1)C(=O)N[C@@H](CCC(N)=O)C(=O)N[C@@H](CCCCN)C(=O)N[C@@H](C)C(=O)N[C@@H](CCC(N)=O)C(=O)N[C@@H](CCC(N)=O)C(=O)N[C@@H](CCCNC(=N)N)C(=O)N[C@@H](CCCCN)C(=O)N[C@@H](CCC(=O)O)C(=O)N[C@@H](CO)C(=O)N[C@@H](CCCCN)C(=O)N[C@@H](CCCCN)C(=O)N1CCC[C@H]1C(=O)N1CCC[C@H]1C(=O)N[C@@H](C)C(=O)N[C@@H](CCCCN)C(=O)N[C@@H](CC(C)C)C(=O)N[C@@H](CCC(N)=O)C(=O)N1CCC[C@H]1C(=O)N[C@@H](CCCNC(=N)N)C(=O)O [Analog 4] (H-[Sar]S[Dap](Myristoyl)[1Nal]LSPEHQKAQQRKESKKPPAKLQPR-OH; N-terminus and C-terminus assumed) | 57 | 212.8 % of Dpr^3ghr | 6.02 | significantly more stable than ghrelin or Dpr^3ghrelin | orexigenic effect (cumulative food intake), dose dependence (fed C57BL/6 male mice; SC 0.2, 1, 5 and 10 mg/kg, fed mice): dose-dependent orexigenic effect; GH levels in plasma [3]: did not alter the GH levels
CCCCCCCCCCCCCC(=O)NC[C@H](NC(=O)[C@H](CO)NC(=O)CNC)C(=O)N[C@@H](Cc1ccccc1)C(=O)N[C@@H](CC(C)C)C(=O)N[C@@H](CO)C(=O)N1CCC[C@H]1C(=O)N[C@@H](CCC(=O)O)C(=O)N[C@@H](Cc1c[nH]cn1)C(=O)N[C@@H](CCC(N)=O)C(=O)N[C@@H](CCCCN)C(=O)N[C@@H](C)C(=O)N[C@@H](CCC(N)=O)C(=O)N[C@@H](CCC(N)=O)C(=O)N[C@@H](CCCNC(=N)N)C(=O)N[C@@H](CCCCN)C(=O)N[C@@H](CCC(=O)O)C(=O)N[C@@H](CO)C(=O)N[C@@H](CCCCN)C(=O)N[C@@H](CCCCN)C(=O)N1CCC[C@H]1C(=O)N1CCC[C@H]1C(=O)N[C@@H](C)C(=O)N[C@@H](CCCCN)C(=O)N[C@@H](CC(C)C)C(=O)N[C@@H](CCC(N)=O)C(=O)N1CCC[C@H]1C(=O)N[C@@H](CCCNC(=N)N)C(=O)O [Analog 2] | 54 | 202.7 % of Dpr^3ghr | 3.80 | – | cachectic state [4]: improved the cachectic state; body weight of AS rats ([4]; 2.5 mg/kg per day): significantly increased body weight; levels of anti-inflammatory cytokine IL-10 (in words) ([1]; 15-day SC 5 mg/kg, vs SNx/saline): significantly increased; body weight of SNx rats [1, 5]: significantly increased body weight; levels of pro-inflammatory cytokines (in words) [1, 5]: significantly decreased levels of these cytokines; also recorded: reduced blood levels of pro-inflammatory cytokines; cachectic state ([1]; repeated SC administration, SNx rats): improved the cachectic state
CCCCCCCC(=O)NC[C@H](NC(=O)[C@H](CO)NC(=O)CNC)C(=O)N[C@@H](Cc1ccc(Cl)c(Cl)c1)C(=O)N[C@@H](CC(C)C)C(=O)N[C@@H](CO)C(=O)N1CCC[C@H]1C(=O)N[C@@H](CCC(=O)O)C(=O)N[C@@H](Cc1c[nH]cn1)C(=O)N[C@@H](CCC(N)=O)C(=O)N[C@@H](CCCCN)C(=O)N[C@@H](C)C(=O)N[C@@H](CCC(N)=O)C(=O)N[C@@H](CCC(N)=O)C(=O)N[C@@H](CCCNC(=N)N)C(=O)N[C@@H](CCCCN)C(=O)N[C@@H](CCC(=O)O)C(=O)N[C@@H](CO)C(=O)N[C@@H](CCCCN)C(=O)N[C@@H](CCCCN)C(=O)N1CCC[C@H]1C(=O)N1CCC[C@H]1C(=O)N[C@@H](C)C(=O)N[C@@H](CCCCN)C(=O)N[C@@H](CC(C)C)C(=O)N[C@@H](CCC(N)=O)C(=O)N1CCC[C@H]1C(=O)N[C@@H](CCCNC(=N)N)C(=O)O [Analog 13] | 47 | 92.9 % of Dpr^3ghr | – | – | –
